Earlier results, collected in US9817001B2, “Methods for determining LDL cholesterol treatment” (Boston Heart Diagnostics Corporation, priority 2008, dated 2017).

System: HDL particle profile (α-1 HDL, preβ-1 HDL)
Conditions: for effect on preβ-1 HDL level: by decreasing CETP activity; for effect on apoA-I kinetics: in vivo

SMILES	effect on preβ-1 HDL level	effect on apoA-I kinetics	statin effectiveness to change the HDL particle profile beneficially (statin therapy, decreasing pre-β1 and increasing α-1)
CC(C)c1c(C(=O)Nc2ccccc2)c(-c2ccccc2)c(-c2ccc(F)cc2)n1CC[C@@H](O)C[C@@H](O)CC(=O)O [atorvastatin]	significantly decrease	little or no effect	
CC(C)c1nc(N(C)S(C)(=O)=O)nc(-c2ccc(F)cc2)c1/C=C/[C@@H](O)C[C@@H](O)CC(=O)O [Rosuvastatin, rosuvastatin]	significantly decrease	little or no effect	
CC[C@H](C)C(=O)O[C@H]1C[C@@H](C)C=C2C=C[C@H](C)[C@H](CC[C@@H]3C[C@@H](O)CC(=O)O3)[C@H]21 [lovastatin]			almost no change
